Data as given in patent publication US9593305B2, “Differentiation of pluripotent stem cells” (Janssen Biotech, Inc., priority 2008, dated 2017).

Tests used:
[1] = test system: H1 human embryonic stem cells; assay: Secondary assay: panel of compounds with growth factor combinations and muscimol, no activin A (Example 6, Table 5); assay type: cell-based
Experimental: Clusters of H1 human embryonic stem cells were grown on reduced growth factor […]™ (Invitrogen; Cat #356231)-coated tissue culture plastic. Cells were passaged using collagenase (Invitrogen; Cat #17104-019) treatment and gentle scraping, washed to remove residual enzyme, and plated with even dispersal at a ratio of 1:1 (surface area) on reduced growth factor […]™-coated 96-well black plates (Packard ViewPlates; PerkinElmer; Cat #6005182) using volumes of 100 μl/well. Cells were allowed to attach as clusters and then recover log phase growth over a 1 to 3 day period, feeding daily with MEF-conditioned medium supplemented with 8 ng/ml bFGF (R&D Systems; Cat #233-FB). Plates were maintained at 37° C., 5% CO2 in a humidified box throughout the duration of the assay. Stocks of growth factors purchased from R&D Systems were EGF (Cat #236-EG), FGF4 (Cat #235-F4), PDGF-A (Cat #221-AA), PDGF-D (Cat #1159-SB), PDGF-A/B (Cat #222-AB), and VEGF (Cat #293-VE). […] All growth factors were solubilized in PBS with 0.1% BSA (Sigma; Cat #A7888) and stored frozen at −80° C. […] Cat #D2650) and stored frozen at −80° C. Compounds were available as 5 mM stocks in 96-well plate format, solubilized in 100% DMSO and stored at −80° C. Compounds were further diluted to an intermediate concentration of 0.2 mM in 50 mM HEPES (Invitrogen; Cat #15630-080), 20% DMSO and stored at 4° C. All growth factors and inhibitors were prepared in a deep well, 96-well polypropylene plate, diluted to 5× intermediate stocks in DMEM:F12 base medium at the beginning of assay and stored at 4° C. A secondary screening assay was conducted, testing in triplicate and feeding on alternate days over the four-day assay timeframe. Assays were initiated by aspirating culture medium from each well followed by three washes in PBS to remove residual growth factors and serum. Test volumes of 80 μl per well were added back containing DMEM:F12 base medium (Invitrogen; Cat #11330-032) supplemented with 0.625% FCS (HyClone; […] All remaining growth factors were tested at a final assay concentration of 50 ng/ml (EGF, FGF4, PDGF-A, PDGF-A/B, VEGF). […] At the conclusion of four-days of culture, assay plates were washed twice with PBS, fixed with 4% paraformaldehyde (Alexis Biochemical; Cat #ALX-350-011) at room temperature for 20 minutes, then washed three times with PBS and permeabilized with 0.5% Triton X-100 (Sigma; Cat #T8760-2) for 20 minutes at room temperature. Cells were washed again three times with PBS and blocked with 4% chicken serum (Invitrogen; Cat #16110082) in PBS for 30 minutes at room temperature. Primary antibody (goat anti-human SOX17; R&D Systems; cat #AF1924) was diluted 1:100 in 4% chicken serum and added to each well for one hour at room temperature. Alexa Fluor 488 conjugated secondary antibody (chicken anti-goat IgG; Molecular Probes; Cat #AZ1467) was diluted 1:200 in PBS and added to each sample well after washing three times with PBS. To counterstain nuclei, 4 μg/ml Hoechst 33342 (Invitrogen; Cat #H3570) was added for ten minutes at room temperature. Plates were washed once with PBS and left in 100 μl/well PBS for imaging. Imaging was performed using an IN Cell Analyzer 1000 (GE Healthcare) utilizing the 51008bs dichroic for cells stained with Hoechst 33342 and Alexa Fluor 488. Exposure times were optimized from positive control wells and from untreated negative control wells stained with secondary antibody alone. Images from 15 fields per well were acquired to compensate for any cell loss during the bioassay and subsequent staining procedures. […] Segmentation for the nuclei was determined based on grayscale levels (baseline range 100-300) and nuclear size. Averages and standard deviations were calculated for each replicate data set. Total SOX17 protein expression was reported as total intensity or integrated intensity, defined as total fluorescence of the cell multiplied by the area of the cell. […]

[2] = test system: H1 human embryonic stem cells; assay: Analog screening with GDF-8 and growth factor/agonist pool (Example 8, Tables 7 and 8); assay type: cell-based; design: Cell Number, % of positive control / Sox17 Expression, % of positive control: tested at 2.5 µM
Experimental: Briefly, clusters of H1 human embryonic stem cells were grown on reduced growth factor […]™ (Invitrogen; Cat #356231)-coated tissue culture plastic. Cells were passaged using collagenase (Invitrogen; Cat #17104-019) treatment and gentle scraping, washed to remove residual enzyme, and plated with even dispersal at a ratio of 1:1 (surface area) on reduced growth factor […]™-coated 96-well black plates (Packard ViewPlates; PerkinElmer; Cat #6005182) using volumes of 100 μl/well. Cells were allowed to attach as clusters and then recover log phase growth over a 1 to 3 day period, feeding daily with MEF conditioned medium supplemented with 8 ng/ml bFGF (R&D Systems; Cat #233-FB). Plates were maintained at 37° C., 5% CO2 in a humidified box throughout the duration of assay. Growth factors purchased from R&D Systems were EGF (Cat #236-EG), FGF4 (Cat #235-F4), PDGF-A (Cat #221-AA), PDGF-D (Cat #1159-SB), PDGF-A/B (Cat #222-AB). […] Screening was conducted using a library of compounds that were made available as 5 mM stocks in 96-well plate format, solubilized in 100% DMSO (Sigma; Cat #D2650) and stored at −80° C. The compounds were further diluted to an intermediate concentration of 0.2 mM in 50 mM HEPES (Invitrogen; Cat #15630-080), 20% DMSO and stored at 4° C. Test conditions were performed in single wells, feeding on alternate days over a four-day assay period. Primary screening assays were initiated by aspirating culture medium from each well followed by three washes in PBS (Invitrogen; Cat #14190) to remove residual growth factors and serum. On the first day of assay, test volumes of 200 μl per well were added back containing DMEM:F12 base medium (Invitrogen; Cat #11330-032) supplemented with 0.5% FCS (HyClone; […] Cat #1324-WN) plus 2.5 μM compound. All remaining growth factors were tested at a final assay concentration of 50 ng/ml (EGF, FGF4, PDGF-A, PDGF-A/B, VEGF) with the exception of GDF-8 tested at 25 ng/ml. […] Cat #120-14). […] All remaining growth factors were tested at a final assay concentration of 50 ng/ml (EGF, FGF4, PDGF-A, PDGF-A/B, VEGF) with the exception of GDF-8 tested at 25 ng/ml. […] Cat #120-14). Negative control samples contained DMEM:F12 base medium supplemented with 2% FCS. […] At the conclusion of four-days of culture, assay plates were washed twice with PBS (Invitrogen; Cat #14190), fixed with 4% paraformaldehyde (Alexis Biochemical; Cat #ALX-350-011) at room temperature for 20 minutes, then washed three times with PBS and permeabilized with 0.5% Triton X-100 (Sigma; Cat #T8760-2) for 20 minutes at room temperature. Cells were washed again three times with PBS and blocked with 4% chicken serum (Invitrogen; Cat #16110082) in PBS for 30 minutes at room temperature. Primary antibody (goat anti-human SOX17; R&D Systems; Cat #AF1924) was diluted 1:100 in 4% chicken serum and added to each well for one hour at room temperature. Alexa Fluor 488 conjugated secondary antibody (chicken anti-goat IgG; Molecular Probes; Cat #AZ1467) was diluted 1:200 in PBS and added to each sample well after washing three times with PBS. To counterstain nuclei, 4 μg/ml Hoechst 33342 (Invitrogen; Cat #H3570) was added for ten minutes at room temperature. Plates were washed once with PBS and left in 100 μl/well PBS for imaging. Imaging was performed using an IN Cell Analyzer 1000 (GE Healthcare) utilizing the 51008bs dichroic for cells stained with Hoechst 33342 and Alexa Fluor 488. Exposure times were optimized from positive control wells and from untreated negative control wells stained with secondary antibody alone. Images from 15 fields per well were acquired to compensate for any cell loss during the bioassay and subsequent staining procedures. […] Segmentation for the nuclei was determined based on gray-scale levels (baseline range 100-300) and nuclear size. Averages and standard deviations were calculated for each replicate data set. […]

[3] = EGF, FGF, PDGF-A, VEGF, PDGF-D, muscimol, GDF8
[4] = Plate 2, compound + EGF, FGF, PDGF-A, VEGF, PDGF-D, muscimol, GDF8
[5] = Plate 2, compound + EGF, FGF, PDGF-A, VEGF, PDGF-D, muscimol, GDF8, positive control Activin A/Wnt3a
[6] = Plate 1, compound + EGF, FGF, PDGF-A, VEGF, PDGF-D, muscimol, GDF8
[7] = Plate 1, compound + EGF, FGF, PDGF-A, VEGF, PDGF-D, muscimol, GDF8, positive control Activin A/Wnt3a
[8] = Table 8: hits with greater than 25% activity of the positive control, with GDF-8 and growth factors/agonists

| Molecule | Cell Number, Average Total Cell Number [2, 4] | Sox17 Expression, Average Total Intensity [2, 4] | Cell Number, % of positive control [2, 5] | Sox17 Expression, % of positive control [2, 5] | Cell Number, % of positive control [2, 8] | Sox17 Expression, % of positive control [2, 8] | Sox17 Expression, Average Total Intensity [2, 8] | also measured |
| --- | --- | --- | --- | --- | --- | --- | --- | --- |
| 9-Methyl-2,3,4,5,7,8,9,10-octahydro-16H-17,21-(azeno)-11,15-(metheno)pyrido[3,2-g][1,3,5,9,13,17]hexaazacyclotricosin-6(1H)-one [Compound 39] | – | – | – | – | – | – | – | SOX17 expression, % of positive control response ([1]; with EGF+FGF4+PDGF-A+VEGF, no activin A): 31 % of positive control response; SOX17 expression, % of positive control response ([1]; with EGF+FGF4+PDGF-AB, no activin A): 68 % of positive control response; SOX17 expression, % of positive control response ([1]; with EGF+FGF4, no activin A): 77 % of positive control response |
| CCN1CC(=O)NCCCc2cccc(c2)-c2ncnc(n2)Nc2cc(Cl)cc(c2)C1 [Compound 16, 10-Chloro-14-ethyl-3,5,7,14,17,27-hexaazatetracyclo[19.3.1.1˜2,6˜1˜8,12˜]heptacosa-1(25), 2(27), 3,5,8(26), 9,11,21,23-nonaen-16-one] | 9064 | 1.48E+08 | 57.3 % of positive control | 51.8 % of positive control | – | – | – | Cell Number, % of positive control [2, 3]: 62.0%; Cell Number, Average Total Cell Number [2, 3]: 8303; Sox17 Expression, % of positive control [2, 3]: 36.7%; Sox17 Expression, Average Total Intensity [2, 3]: 9.20E+07 |
| O=C1NCCCc2cncc(c2)-c2ncnc(n2)Nc2cc(Cl)cc(c2)CN2CCC[C@@H]12 [Compound 36, (18S)-10-Chloro-3,5,7,14,20,26,30-heptaazapentacyclo[22.3.1.1˜2,6˜0.1˜8,12˜0.0˜14,18˜]triaconta-1(28), 2(30), 3,5,8(29), 9,11,24,26-nonaen-19-one] | – | – | – | – | 59.5 % of positive control | 37.8 % of positive control | 9.47E+07 | Cell Number, Average Total Cell Number [2, 6]: 7964; Sox17 Expression, Average Total Intensity [2, 6]: 9.47E+07; Cell Number, % of positive control [2, 7]: 59.5 % of positive control; Sox17 Expression, % of positive control [2, 7]: 37.8 % of positive control |
| O=C1NCCCc2cncc(c2)-c2ncnc(n2)Nc2cc(Cl)cc(c2)CN2CCCC1C2 (stereo not shown) [Compound 38, 5-Chloro-1,8,10,12,16,22,30-heptaazapentacyclo[22.2.2.1˜3,7˜0.1˜9,13˜0.1˜14,18˜]hentriaconta-3(31), 4,6,9(30), 10,12,14(29), 15,17-nonaen-23-one] | 9650 | 2.46E+08 | 61.0 % of positive control | 86.2 % of positive control | 61.0 % of positive control | 86.2 % of positive control | 2.46E+08 | – |
